Broadly, the Ki is a dissociation constant, usually derived from enzyme kinetics or from competition with a known ligand. Read a high Ki as weaker binding.

Structures are written as SMILES.

The assay addresses T1, rAaBGL1 (Aspergillus aculeatus β-glucosidase 1) (Aspergillus aculeatus, UniProt P48825).
T1 construct: full AaBGL1 gene amplified from A. aculeatus genomic DNA, own signal peptide, no tag mentioned; expressed in Aspergillus oryzae niaD300, released from cell surface
T1 sequence (P48825 20-860): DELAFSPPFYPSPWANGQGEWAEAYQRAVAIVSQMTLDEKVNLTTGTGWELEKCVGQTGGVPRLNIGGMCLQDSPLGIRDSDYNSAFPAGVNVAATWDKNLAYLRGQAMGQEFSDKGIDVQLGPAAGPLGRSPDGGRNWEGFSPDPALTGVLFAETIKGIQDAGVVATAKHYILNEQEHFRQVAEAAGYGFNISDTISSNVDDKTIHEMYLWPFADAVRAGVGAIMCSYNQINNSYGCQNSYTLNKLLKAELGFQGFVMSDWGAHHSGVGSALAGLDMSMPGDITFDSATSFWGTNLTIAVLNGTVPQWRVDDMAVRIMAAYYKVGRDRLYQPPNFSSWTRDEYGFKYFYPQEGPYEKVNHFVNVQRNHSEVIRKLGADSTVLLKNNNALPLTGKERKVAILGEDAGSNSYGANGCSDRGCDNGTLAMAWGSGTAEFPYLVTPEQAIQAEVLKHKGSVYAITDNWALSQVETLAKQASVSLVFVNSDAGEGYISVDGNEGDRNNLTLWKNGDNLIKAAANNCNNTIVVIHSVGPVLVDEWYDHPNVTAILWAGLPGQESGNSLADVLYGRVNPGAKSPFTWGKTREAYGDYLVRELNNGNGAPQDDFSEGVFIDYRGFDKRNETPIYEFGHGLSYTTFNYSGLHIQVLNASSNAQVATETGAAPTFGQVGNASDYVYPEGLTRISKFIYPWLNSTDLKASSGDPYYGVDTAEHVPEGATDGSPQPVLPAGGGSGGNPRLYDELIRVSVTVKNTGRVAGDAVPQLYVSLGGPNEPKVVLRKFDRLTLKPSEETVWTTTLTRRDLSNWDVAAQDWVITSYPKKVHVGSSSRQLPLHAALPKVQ
The experiment in a line: pNP-Glc hydrolysis, absorbance […] nm, Dixon plot. It counts as biochemical. The following applies: 0.1-0.4 mM pNP-Glc, 20 mM sodium acetate pH 5.0, 37°C; competitive.

`OC[C@H]1OC(O)[C@H](O)[C@@H](O)[C@@H]1O` (stereo partly shown) [glucose]: the affinity corresponds to a Ki of 9.99 ± 0.94 mM.

Values taken from PMC4305095, “Characterization of Aspergillus aculeatus β-glucosidase 1 accelerating cellulose hydrolysis with Trichoderma cellulase system” (AMB Express, 2015).
